We go through one compound from ChEMBL document CHEMBL4152229, “Synthesis and biological evaluation of 2,6-disubstituted-9H-purine, 2,4-disubstitued-thieno[3,2-d]pyrimidine and -7H-pyrrolo[2,3-d]pyrimidine analogues as novel CHK1 inhibitors” (Eur J Med Chem, 2018).

What is called inhibition is the drop in the measured response relative to a control, in per cent. The low end stands for little suppression, the high end for strong suppression.

Assay [1] relates to HT-29. The assay is described as follows: Cell cycle arrest in human HT-29 cells assessed as accumulation at S phase at 10 uM after 48 hrs by propidium iodide/RNase staining-based flow cytometric analysis (reference value: 30.9%). The class given is functional. In general terms: Flow cytometry measures light scatter and fluorescence of single cells or particles in a stream.
Assay [2] concerns HT-29. Nature of the assay: Potentiation of gemcitabine-induced cell cycle arrest in human HT-29 cells assessed as accumulation at G2 phase at 10 uM after 48 hrs by propidium iodide/RNase staining-based flow cytometric analysis (reference value: 62.1%). The class given is functional.
For assay [3], the target named is Mitogen-activated protein kinase 1 (Homo sapiens) (UniProt P28482). Nature of the assay: Inhibition of DNA-tagged MAPK1 (unknown origin) expressed in HEK293 cells at 10 uM after 1 hr by real-time fluorescent quantitative PCR analysis. The class given is cell-based.
Chain of Mitogen-activated protein kinase 1 (Homo sapiens) (P28482 whole entry): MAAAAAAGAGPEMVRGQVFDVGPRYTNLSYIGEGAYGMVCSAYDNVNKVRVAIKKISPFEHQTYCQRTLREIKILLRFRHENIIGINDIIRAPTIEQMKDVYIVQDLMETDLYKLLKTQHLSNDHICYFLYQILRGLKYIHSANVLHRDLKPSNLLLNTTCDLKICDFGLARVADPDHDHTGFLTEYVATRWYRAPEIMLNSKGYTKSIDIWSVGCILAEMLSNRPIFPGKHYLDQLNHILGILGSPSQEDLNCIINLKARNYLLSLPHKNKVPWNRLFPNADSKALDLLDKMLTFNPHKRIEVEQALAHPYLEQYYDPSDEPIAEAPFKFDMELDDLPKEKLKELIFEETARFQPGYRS
The target of assay [4] is T1, Serine/threonine-protein kinase 3 (Homo sapiens) (UniProt Q13188).
T1 sequence (whole entry): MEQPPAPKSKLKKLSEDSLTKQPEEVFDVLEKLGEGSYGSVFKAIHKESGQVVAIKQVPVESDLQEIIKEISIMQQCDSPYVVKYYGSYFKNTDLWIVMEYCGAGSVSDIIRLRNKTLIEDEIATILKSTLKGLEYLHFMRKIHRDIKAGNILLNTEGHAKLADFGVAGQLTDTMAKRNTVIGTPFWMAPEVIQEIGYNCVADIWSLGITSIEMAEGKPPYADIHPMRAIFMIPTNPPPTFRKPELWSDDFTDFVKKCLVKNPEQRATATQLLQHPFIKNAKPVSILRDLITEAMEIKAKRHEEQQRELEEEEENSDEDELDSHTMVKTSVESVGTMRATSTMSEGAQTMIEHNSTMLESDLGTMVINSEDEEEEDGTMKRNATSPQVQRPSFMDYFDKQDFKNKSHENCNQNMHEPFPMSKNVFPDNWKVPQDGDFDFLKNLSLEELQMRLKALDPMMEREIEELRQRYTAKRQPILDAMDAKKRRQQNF
Nature of the assay: Inhibition of DNA-tagged STK3 (unknown origin) expressed in HEK293 cells at 10 uM after 1 hr by real-time fluorescent quantitative PCR analysis. The class given is cell-based.

Assay [5] has as its target Tyrosine-protein kinase BTK (Homo sapiens) (UniProt Q06187). Nature of the assay: Inhibition of DNA-tagged BTK (unknown origin) expressed in HEK293 cells at 10 uM after 1 hr by real-time fluorescent quantitative PCR analysis. The class given is cell-based.
In assay [6] the target is T2, Ephrin type-B receptor 4 (Homo sapiens) (UniProt P54760).
T2 sequence (whole entry): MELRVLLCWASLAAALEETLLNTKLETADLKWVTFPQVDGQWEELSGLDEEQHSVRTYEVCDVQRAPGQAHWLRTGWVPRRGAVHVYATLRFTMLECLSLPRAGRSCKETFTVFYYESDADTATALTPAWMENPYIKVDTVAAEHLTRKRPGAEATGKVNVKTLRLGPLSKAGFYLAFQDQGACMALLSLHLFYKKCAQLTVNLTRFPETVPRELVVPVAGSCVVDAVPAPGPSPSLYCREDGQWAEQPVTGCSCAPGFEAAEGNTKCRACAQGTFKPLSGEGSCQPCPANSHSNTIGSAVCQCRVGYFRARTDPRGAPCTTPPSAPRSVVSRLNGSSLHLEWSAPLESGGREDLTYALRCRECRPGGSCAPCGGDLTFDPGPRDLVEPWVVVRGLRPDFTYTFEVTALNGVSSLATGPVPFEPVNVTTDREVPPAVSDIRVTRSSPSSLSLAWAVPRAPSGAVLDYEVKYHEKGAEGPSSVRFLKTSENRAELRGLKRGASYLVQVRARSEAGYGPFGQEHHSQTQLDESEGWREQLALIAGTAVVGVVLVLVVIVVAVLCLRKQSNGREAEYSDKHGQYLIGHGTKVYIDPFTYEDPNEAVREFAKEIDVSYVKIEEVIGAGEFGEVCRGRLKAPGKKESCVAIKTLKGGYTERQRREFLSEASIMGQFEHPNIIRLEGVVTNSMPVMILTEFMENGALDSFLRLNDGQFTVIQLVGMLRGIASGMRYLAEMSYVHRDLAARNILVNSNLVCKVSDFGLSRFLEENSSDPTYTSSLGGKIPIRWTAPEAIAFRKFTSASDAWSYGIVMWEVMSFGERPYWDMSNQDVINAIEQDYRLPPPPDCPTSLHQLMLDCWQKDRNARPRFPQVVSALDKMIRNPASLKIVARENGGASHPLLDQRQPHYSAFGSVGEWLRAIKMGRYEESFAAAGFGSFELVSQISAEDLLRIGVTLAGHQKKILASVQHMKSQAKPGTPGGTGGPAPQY
The assay is described as follows: Inhibition of DNA-tagged EPHB4 (unknown origin) expressed in HEK293 cells at 10 uM after 1 hr by real-time fluorescent quantitative PCR analysis. In kind it is cell-based.

Chain of Tyrosine-protein kinase BTK (Homo sapiens) (Q06187 whole entry): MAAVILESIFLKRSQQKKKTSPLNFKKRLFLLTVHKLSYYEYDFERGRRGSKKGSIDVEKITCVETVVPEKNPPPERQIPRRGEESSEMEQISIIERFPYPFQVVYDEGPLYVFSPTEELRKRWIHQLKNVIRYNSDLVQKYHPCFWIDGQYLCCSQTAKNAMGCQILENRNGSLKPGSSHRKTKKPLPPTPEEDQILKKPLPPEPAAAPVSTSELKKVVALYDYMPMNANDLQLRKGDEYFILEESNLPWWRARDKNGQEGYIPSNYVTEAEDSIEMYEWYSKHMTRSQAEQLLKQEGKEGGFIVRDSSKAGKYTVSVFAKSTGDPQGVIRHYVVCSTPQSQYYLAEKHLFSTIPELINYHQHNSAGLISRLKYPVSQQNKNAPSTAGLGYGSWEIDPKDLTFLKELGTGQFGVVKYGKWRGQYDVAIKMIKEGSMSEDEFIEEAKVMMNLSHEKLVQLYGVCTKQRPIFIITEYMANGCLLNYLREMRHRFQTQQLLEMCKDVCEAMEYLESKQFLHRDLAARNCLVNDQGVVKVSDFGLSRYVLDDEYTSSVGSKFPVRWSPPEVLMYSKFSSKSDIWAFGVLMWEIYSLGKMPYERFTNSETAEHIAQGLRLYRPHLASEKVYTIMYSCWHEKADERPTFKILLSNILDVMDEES

Turning to `Fc1ccc(Nc2nc(N3CCOCC3)c3nc[nH]c3n2)cc1`, the Activity in assay [1] was determined as 29.5%; in assay [2] it was 25.2%. Besides, the inhibition was 33% in assay [3], 44% in assay [4], 35% in assay [5] and 23% in assay [6].
